Laboratory results reported in patent US10689399B2, “Substituted 3,4,5,6,8,10,14,14a-octahydro-2h-2,6-methanopyrido[1′,2′:4,5]pyrazino[2,1-b][1,3]oxazocines and methods for treating viral infections” (Gilead Sciences, Inc., priority 2012, dated 2020).

What follows are molecules tested on HIV-IIIb (assay: Antiviral assay in MT4 cells). Settings: Human immunodeficiency virus 1, IIIB, MT4, 120 h, MT4 cells infected with HIV-IIIb, 5 days, CellTiter-Glo; read-out: EC50 nM in MT-4.
Assay type: cell-based
Outline: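 MT4 cells pre-infected with HIV-IIIb (0.004 m.o.i.) at 37 °C, or mock-infected, then seeded at 2000 cells/well onto 3-fold serially diluted compound (10 concentrations, quadruplicate) in RPMI 1640 with 10% FBS. After 5 days at 37 °C, cell viability read by CellTiter-Glo luminescence.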
In the case of `O=C(NCc1ccc(F)cc1F)c1cn2c(c(O)c1=O)C(=O)N1[C@H]3CC[C@H](CC3)[C@H]1C2` [Compound 100, (1R,4R,12aS)—N-(2,4-difluorobenzyl)-7-hydroxy-6,8-dioxo-1,2,3,4,6,8,12,12a-octahydro-1,4-ethanodipyrido[1,2-a:1′,2′-d]pyrazine-9-carboxamide], the EC50 is reported as 2.2 nM.
For `O=C(NCc1c(F)cc(F)cc1F)c1cn2c(c(O)c1=O)C(=O)N1[C@H]3CC[C@H](CC3)[C@H]1C2` [Compound 101, (1R,4R,12aS)-7-hydroxy-6,8-dioxo-N-(2,4,6-trifluorobenzyl)-1,2,3,4,6,8,12,12a-octahydro-1,4-ethanodipyrido[1,2-a:1′,2′-d]pyrazine-9-carboxamide], the EC50 was 2.1 nM.
Work on `O=C(NCc1c(F)cc(F)cc1F)c1cn2c(c(O)c1=O)C(=O)N1[C@H]3CC[C@H](CC3)[C@@H]1C2` [Compound 102, (1S,4S,12aR)-7-hydroxy-6,8-dioxo-N-(2,4,6-trifluorobenzyl)-1,2,3,4,6,8,12,12a-octahydro-1,4-ethanodipyrido[1,2-a:1′,2′-d]pyrazine-9-carboxamide] yielded an EC50 of 2.3 nM.
For `O=C(NCc1c(F)cc(F)cc1F)c1cn2c(c(O)c1=O)C(=O)N1[C@@H]3C[C@@H](C(F)C3F)[C@@H]1C2` (stereo partly drawn) [Compound 103, (1R,4R,12aR)-2,3-difluoro-7-hydroxy-6,8-dioxo-N-(2,4,6-trifluorobenzyl)-1,2,3,4,6,8,12,12a-octahydro-1,4-methanodipyrido[1,2-a:1′,2′-d]pyrazine-9-carboxamide], the EC50 was 10.3 nM.
